Measured values reported in US7739055B2, “Methods and systems for generating and evaluating peptides” (priority 2005, dated 2010).
In brackets after ≈: the same amount, converted by molar mass. Like-named read-outs stand apart in the source and are kept apart here. Where a SMILES comes first, the peptide text is derived from it.

Tests used:
[1] = first concentration that prohibits growth by OD at 24 hours, Table 1

Compound	MIC B. cereus (B. cereus; [1])	MIC E. coli (Escherichia coli; [1])	MIC E. coli (Escherichia coli; 24 h) [µg/mL]	MIC B. cereus (B. cereus)
KGRGKQGGKVRAKAKTRSS [Parasin]	+ (MIC greater than 256 ug/mL)	+ (MIC greater than 256 ug/mL)		
FVGSLASKVVPSVFGAIKTK [Peptide 82]	+ (MIC greater than 256 ug/mL)	+ (MIC greater than 256 ug/mL)		
FVGGVASKVVPSVYCKVSKK [Peptide 85]	+ (MIC greater than 256 ug/mL)	+ (MIC greater than 256 ug/mL)		
CC(C)C[C@H](NC(=O)CNC(=O)[C@H](Cc1ccccc1)NC(=O)[C@H](CC(C)C)NC(=O)[C@H](C)NC(=O)CN)C(=O)N[C@@H](C)C(=O)N[C@@H](CO)C(=O)N[C@@H](CCCCN)C(=O)N[C@H](C(=O)N[C@@H](Cc1ccccc1)C(=O)N1CCC[C@H]1C(=O)N[C@@H](C)C(=O)N[C@H](C(=O)N[C@@H](Cc1ccccc1)C(=O)NCC(=O)N[C@@H](C)C(=O)N[C@@H](Cc1ccccc1)C(=O)N[C@@H](CCCCN)C(=O)N[C@@H](CCCCN)C(=O)O)C(C)C)C(C)C [Peptide 30] (H-GALFGLASKVFPAVFGAFKK-OH; N-terminus and C-terminus assumed)	+ (MIC greater than 256 ug/mL)		256 (≈ 125 µM)	
PYSLKNGENWLLSEEIIRYP [Peptide 50]	+ (MIC greater than 256 ug/mL)	+ (MIC greater than 256 ug/mL)		
GVSSPIVAVKFKGAVASLIK [Shuffled 6]	+ (MIC greater than 256 ug/mL)	+ (MIC greater than 256 ug/mL)		
PVIGKLASKVVPSVFSMIKR [Peptide 7]	+ (MIC greater than 256 ug/mL)	+ (MIC greater than 256 ug/mL)		
CC[C@H](C)[C@H](NC(=O)[C@@H](NC(=O)[C@H](CS)NC(=O)[C@H](Cc1ccc(O)cc1)NC(=O)[C@@H](NC(=O)[C@H](CO)NC(=O)[C@@H]1CCCN1C(=O)[C@@H](NC(=O)[C@@H](NC(=O)[C@H](CCCCN)NC(=O)[C@H](CO)NC(=O)[C@H](C)NC(=O)[C@H](CC(C)C)NC(=O)[C@H](CCCCN)NC(=O)[C@H](Cc1ccccc1)NC(=O)[C@@H](NC(=O)[C@@H](N)C(C)C)C(C)C)C(C)C)C(C)C)C(C)C)[C@@H](C)O)C(=O)N[C@H](C(=O)N[C@@H](CCCCN)C(=O)N[C@@H](CCCCN)C(=O)O)[C@@H](C)O [Peptide 88] (H-VVFKLASKVVPSVYCTITKK-OH; N-terminus and C-terminus assumed)	+ (MIC greater than 256 ug/mL)		256 (≈ 116 µM)	
PVVFSVASKVVPSLISALKR [Peptide 25]		+ (MIC greater than 256 ug/mL)		+ (key: +: MIC greater than 256 ug/mL; ++: MIC greater than 128 ug/mL, not sufficiently soluble to test as 256 ug/mL)
KIVKVITVKSISPASLVPVF [Shuffled 83]	++ (MIC greater than 128 ug/mL, not sufficiently soluble to test as 256 ug/mL)	++ (MIC greater than 128 ug/mL, not sufficiently soluble to test as 256 ug/mL)		
AATGTGKTAAFALPVLERLI [Peptide 38]	+ (MIC greater than 256 ug/mL)	+ (MIC greater than 256 ug/mL)		
SRVPLKSPVKIVGSKVMIFA [Shuffled 7]	+ (MIC greater than 256 ug/mL)	+ (MIC greater than 256 ug/mL)		

Now from value to compound, other results behind:

MIC B. cereus (B. cereus; [1])	MIC E. coli (Escherichia coli; [1])	MIC E. coli (Escherichia coli; 24 h) [µg/mL]	Compound	MIC B. cereus (B. cereus)
+ (MIC greater than 256 ug/mL)	+ (MIC greater than 256 ug/mL)		VVAKKFFVLVKGLAPVLSPS [Shuffled 42]	
+ (MIC greater than 256 ug/mL)	+ (MIC greater than 256 ug/mL)		PKVVGLSIVVVKAKVSSALG [Shuffled 57]	
+ (MIC greater than 256 ug/mL)	+ (MIC greater than 256 ug/mL)		LYSPTCVKAAVSRFIGKVSA [Shuffled 15]	
+ (MIC greater than 256 ug/mL)	+ (MIC greater than 256 ug/mL)		STVKVASKLAVVVSPISKGS [Shuffled 36]	
+ (MIC greater than 256 ug/mL)	+ (MIC greater than 256 ug/mL)		FMKVLAVFGSVVTSAPKASK [Shuffled 31]	
+ (MIC greater than 256 ug/mL)	+ (MIC greater than 256 ug/mL)		KVGKGSYPCSFVKVVAKVSV [Shuffled 85]	
